The experiment has as its target T1, peanut agglutinin (PNA) (Arachis hypogaea, UniProt P02872).
T1 sequence (P02872 24-273): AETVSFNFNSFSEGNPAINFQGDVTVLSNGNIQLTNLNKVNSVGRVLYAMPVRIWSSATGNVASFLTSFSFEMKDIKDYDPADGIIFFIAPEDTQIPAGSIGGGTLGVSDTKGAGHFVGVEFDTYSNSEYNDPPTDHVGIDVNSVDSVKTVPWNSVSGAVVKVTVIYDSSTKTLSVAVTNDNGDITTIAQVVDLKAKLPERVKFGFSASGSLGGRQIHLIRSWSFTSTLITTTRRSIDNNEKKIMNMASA
Description: isothermal titration calorimetry, one-site model. Format: binding.

Consider one compound from paper PMC4500165 (Pure and applied chemistry. Chimie pure et appliquee, 2013).

The compound `[N-]=[N+]=Nc1c(F)c(F)c(C(=O)NCCOCCOCCS[C@@H]2O[C@H](CO)[C@@H](O[C@@H]3O[C@H](CO)[C@H](O)[C@H](O)[C@H]3O)[C@H](O)[C@H]2O)c(F)c1F` [compound 5, 2-(2-(2-(4-Azido-2,3,5,6-tetrafluorobenzamido)ethoxy)ethoxy)ethyl 4-O-β-D-galactopyranosyl-1-thio-β-D-glucopyranoside] displayed a Kd of 549 µM.
